Our source for the IC50 values is patent US8044211B2 (Chroma Therapeutics Ltd., priority 2006, dated 2011).

Some results are limits rather than exact numbers.

In the assay the target is T1, p38 MAP Kinase a (Homo sapiens, UniProt Q16539).
T1 construct: purchased Upstate (Dundee UK)
T1 sequence (Q16539 whole entry): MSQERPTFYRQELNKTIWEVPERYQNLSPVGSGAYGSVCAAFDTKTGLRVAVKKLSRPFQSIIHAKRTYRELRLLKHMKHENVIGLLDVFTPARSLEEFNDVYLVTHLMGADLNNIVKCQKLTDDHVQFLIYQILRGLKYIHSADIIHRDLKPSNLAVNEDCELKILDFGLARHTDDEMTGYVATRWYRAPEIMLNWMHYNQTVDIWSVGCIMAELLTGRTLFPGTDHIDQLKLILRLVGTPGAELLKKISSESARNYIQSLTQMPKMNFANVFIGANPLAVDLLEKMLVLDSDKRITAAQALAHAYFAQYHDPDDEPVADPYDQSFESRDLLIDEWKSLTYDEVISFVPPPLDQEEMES
The assay can be described thus: p38 MAP Kinase activity, radiometric filter-binding assay (Upstate). The conditions noted are these: IC50 range; ATP at or close to Km; read-out: Inhibitor activity versus p38 MAPKa. It counts as biochemical. The protocol:
The ability of compounds to inhibit p38 MAP a Kinase activity was measured in an assay performed by Upstate (Dundee UK). In a final reaction volume of 25 μL, p38 MAP Kinase a (5-10 mU) is incubated with 25 mM Tris pH 7.5, 0.002 mMEGTA, 0.33 mg/mL myelin basic protein, 10 mM MgAcetate and [g-33P-ATP] (specific activity approx. 500 cpm/pmol, concentration as required). The reaction is initiated by the addition of the MgATP mix. After incubation for 40 minutes at room temperature, the reaction is stopped by the addition of 5 μL of a 3% phosphoric acid solution. 10 μL of the reaction is then spotted onto a P30 filtermat and washed three times for 5 minutes in 75 mM phosphoric acid and once in methanol prior to drying and scintillation counting.
Duplicate data points are generated from a ⅓ log dilution series of a stock solution in DMSO. Nine dilutions steps are made from a top concentration of 10 μM, and a ‘no compound’ blank is included. The standard radiometric filter-binding assay is performed at an ATP concentration at, or close to, the Km. Data from scintillation counts are collected and subjected to free-fit analysis by Prism software. From the curve generated, the concentration giving 50% inhibition is determined and reported.
With `Nc1c(C(=O)c2ccc(F)cc2F)ccc(=O)n1-c1ccc(CN[C@H](C(=O)O)c2ccccc2)cc1` [Example 72, (S)-{4-[6-Amino-5-(2,4-difluorobenzoyl)-2-oxo-2H-pyridin-1-yl]benzylamino}phenylacetic acid], the IC50 was less than 100 nM.
The same measure for `CC(C)C[C@H](NCCCCCOc1cc(F)c(-n2c(N)c(C(=O)c3ccc(F)cc3F)ccc2=O)c(F)c1)C(=O)O` [Example 116, N-(5-{4-[6-amino-5-(2,4-difluorobenzoyl)-2-oxopyridin-1(2H)-yl]-3,5-difluorophenoxy}pentyl)-L-leucine]: less than 100 nM.
With `Nc1c(C(=O)c2ccc(F)cc2)ccc(=O)n1-c1c(F)cc(CN[C@@H](Cc2ccccc2)C(=O)O)cc1F` [Example 92] the figure was less than 100 nM; with `Nc1c(C(=O)c2ccc(F)cc2F)ccc(=O)n1-c1ccc(OCCCN[C@H](C(=O)O)c2ccccc2)cc1` [Example 84, (S)-(3-{4-[6-Amino-5-(2,4-difluorobenzoyl)-2-oxo-2H-pyridin-1-yl]-phenoxy}propylamino)phenyl acetic acid], less than 100 nM.
With `CC(C)C[C@H](NCCc1ccc(-n2c(N)c(C(=O)c3ccc(F)cc3)ccc2=O)cc1)C(=O)O` [Example 111, N-[2-(4-{6-amino-5-[(4-fluorophenyl)carbonyl]-2-oxopyridin-1 (2H)-yl}phenyl)ethyl]-L-leucine] the figure was 100 to 1000 nM; with `Cc1cc(C(=O)c2ccc(=O)n(-c3c(F)cc(OCCCN[C@H](C(=O)O)c4ccccc4)cc3F)c2N)ccc1F` [Example 99, (S)-(3-{4-[6-Amino-5-(4-fluoro-3-methylbenzoyl)-2-oxo-2H-pyridin-1-yl]-3,5-difluorophenoxy}propylamino)phenylacetic acid], less than 100 nM.
`CC(C)C[C@H](NC(=O)COc1ccc(-n2c(N)c(C(=O)c3ccc(F)cc3)ccc2=O)cc1)C(=O)O` [Example 110, N-({4-[6-Amino-5-(4-fluorobenzoyl)-2-oxopyridin-1(2H)-yl]phenoxy}-acetyl)-L-leucine]: the IC50 lay in the range of 100 to 1000 nM.
The same measure for `Cc1cc(C(=O)c2ccc(=O)n(-c3ccc(CN[C@@H](CC(C)C)C(=O)O)cc3)c2N)ccc1F` [Example 81, (S)-2-{4-[6-Amino-5-(3-Methyl-4-fluorobenzoyl)-2-oxo-2H-pyridin-1-yl]benzylamino}-4-methylpentanoic acid]: 100 to 1000 nM; for `Nc1c(C(=O)c2ccc(F)cc2)ccc(=O)n1-c1c(F)cc(OC2CCC(N[C@@H](Cc3ccccc3)C(=O)O)CC2)cc1F` (stereo partly shown) [Example 102]: less than 100 nM.
The same measure for `Nc1c(C(=O)c2ccc(F)cc2F)ccc(=O)n1-c1c(F)cc(OCCCN[C@H](C(=O)O)c2ccccc2)cc1F` [Example 95, (S)-(3-{4-[6-Amino-5-(2,4-difluorobenzoyl)-2-oxo-2H-pyridin-1-yl]-3,5-difluorophenoxy}propylamino)phenyl acetic acid]: less than 100 nM; for `Nc1c(C(=O)c2ccc(F)cc2F)ccc(=O)n1-c1c(F)cc(OCCCN[C@@H](Cc2ccccc2)C(=O)O)cc1F` [Example 100, (S)-2-(3-{4-[6-Amino-5-(2,4-difluorobenzoyl)-2-oxo-2H-pyridin-1-yl]-3,5-difluorophenoxy}-propylamino)-3-phenyl propionic acid]: less than 100 nM.
Turning to `Nc1c(C(=O)c2ccc(F)cc2)ccc(=O)n1-c1c(F)cc(OC2CCC(N[C@H](C(=O)O)c3ccccc3)CC2)cc1F` (stereo partly drawn) [Example 103, (2S)-[(4-{4-[6-amino-5-(4-fluorobenzoyl)-2-oxopyridin-1(2H)-yl]-3,5-difluorophenoxy}cyclohexyl)amino](phenyl)acetic acid], the IC50 is less than 100 nM.
Turning to `Nc1c(C(=O)c2ccc(F)cc2F)ccc(=O)n1-c1ccc(CN[C@@H](Cc2ccccc2)C(=O)O)cc1` [Example 73, (S)-2-{4-[6-Amino-5-(2,4-difluorobenzoyl)-2-oxo-2H-pyridin-1-yl]benzylamino}-3-phenylpropionic acid], the IC50 is less than 100 nM.
Regarding `Nc1c(C(=O)c2ccc(F)cc2)ccc(=O)n1-c1ccc(OCCCN[C@H](C(=O)O)c2ccccc2)cc1` [Example 94, (S)-(3-{4-[6-Amino-5-(4-fluorobenzoyl)-2-oxo-2H-pyridin-1-yl]-Phenoxy}propylamino)phenylacetic acid], the IC50 is less than 100 nM.
The same measure for `Nc1c(C(=O)c2ccc(F)cc2)ccc(=O)n1-c1ccc(OCCCN[C@@H](Cc2ccccc2)C(=O)O)cc1` [Example 82]: less than 100 nM; for `Nc1c(C(=O)c2ccc(F)cc2F)ccc(=O)n1-c1c(F)cc(OCCCN[C@H](C(=O)O)C2CCCCC2)cc1F` [Example 107, (2S)-[(3-{4-[6-amino-5-(2,4-difluorobenzoyl)-2-oxopyridin-1(2H)-yl]-3,5-difluorophenoxy}propyl)amino](cyclohexyl)acetic acid]: less than 100 nM.
The same measure for `Cc1cc(C(=O)c2ccc(=O)n(-c3ccc(OCCCN[C@@H](CC(C)C)C(=O)O)cc3)c2N)ccc1F` [Example 88, (S)-2-(3-{4-[6-Amino-5-(4-fluoro-3-methylbenzoyl)-2-oxo-2H-pyridin-1-yl]phenoxy}propylamino)-4-methylpentanoic acid]: less than 100 nM.
With `Nc1c(C(=O)c2ccc(F)cc2)ccc(=O)n1C1CCC(N[C@@H](Cc2ccccc2)C(=O)O)CC1` (stereo partly drawn) [Example 105, (S)-2-{4-[6-Amino-5-(4-fluorobenzoyl)-2-oxo-2H-pyridin-1-yl]cyclohexylamino}-3-phenylpropionic acid], the IC50 was in the range of 100 to 1000 nM.
Consider `CC(C)C[C@H](NCCCOc1cc(F)c(-n2c(N)c(C(=O)c3ccc(F)cc3F)ccc2=O)c(F)c1)C(=O)O` [Example 97, (S)-2-(3-{4-[6-Amino-5-(2,4-difluorobenzoyl)-2-oxo-2H-pyridin-1-yl]-3,5-difluorophenoxy}propylamino)-4-methyl pentanoic acid], for which the IC50 was less than 100 nM.
Regarding `CC(C)C[C@H](NCCCOc1ccc(-n2c(N)c(C(=O)c3ccc(F)cc3F)ccc2=O)cc1)C(=O)O` [Example 96, (S)-2-(3-{4-[6-Amino-5-(2,4-difluorobenzoyl)-2-oxo-2H-pyridin-1-yl]phenoxy}propylamino)-4-methyl pentanoic acid], the IC50 was less than 100 nM.
In the case of `CC(C)C[C@H](NCCCOc1cc(F)c(-n2c(N)c(C(=O)c3ccc(F)cc3)ccc2=O)c(F)c1)C(=O)O` [Example 91], the IC50 was less than 100 nM.
The same measure for `CC(C)C[C@H](NCCCOc1ccc(-n2c(N)c(C(=O)c3ccc(F)cc3)ccc2=O)cc1)C(=O)O` [Example 85, (S)-2-(3-{4-[6-Amino-5-(4-fluorobenzoyl)-2-oxo-2H-pyridin-1-yl]phenoxy}propylamino)-4-methylpentanoic acid]: less than 100 nM; for `Nc1c(C(=O)c2ccc(F)cc2F)ccc(=O)n1-c1ccc(OCCCN[C@@H](Cc2ccccc2)C(=O)O)cc1` [Example 86, (S)-2-(3-{4-[6-Amino-5-(2,4-difluorobenzoyl)-2-oxo-2H-pyridin-1-yl]phenoxy}propylamino)-3-phenyl propionic acid]: greater than 1000 nM.
The same measure for `Cc1cc(C(=O)c2ccc(=O)n(-c3ccc(OCCCN[C@H](C(=O)O)c4ccccc4)cc3)c2N)ccc1F` [Example 87]: 100 to 1000 nM; for `Nc1c(C(=O)c2ccc(F)cc2)ccc(=O)n1-c1ccc(CN[C@@H](Cc2ccccc2)C(=O)O)cc1` [Example 78, (S)-2-{4-[6-Amino-5-(4-fluorobenzoyl)-2-oxo-2H-pyridin-1-yl]benzylamino}-3-phenylpropionic acid]: 100 to 1000 nM.
